From patent publication US20250367129A1, “Lipid Compounds and Uses Thereof” (Pfizer Inc., priority 2022, published 2025)

Assays:
[1] = LNP size and size distribution by dynamic light scattering (WISC HA modFlu mRNA LNPs); type: physicochemical; conditions: DLS; for Size (nm): LNP of the ionizable lipid:cholesterol:DSPC:PEG-Lipid about 46.3:42.7:9.4:1.6 with WISC HA modFlu mRNA; for PDI: LNP with WISC HA modFlu mRNA
Protocol: (§1) Lipid nanoparticles were prepared and tested according to the general procedures described in U.S. Pat. No. 9,737,619 (PCT Pub. No. WO2015/199952) and U.S. Pat. No. 10,166,298 (PCT Pub. No. WO 2017/075531) and PCT Pub. No. WO2020/146805. The novel ionizable lipids of the invention, cholesterol, DSPC and PEG-Lipid were solubilized in Ethanol at a molar ratio of about 46.3:42.7:9.4:1.6. Lipid nanoparticles (LNP) were prepared at a total lipid to mRNA ratio of about 23:1. In short, the mRNA (WISC HA modFlu) was diluted in buffer. Syringe pumps were used to mix the lipid solution with the mRNA solution. The ethanol was removed, and external buffer replaced with another buffer (e.g., Tris) by dialysis. Finally, the lipid nanoparticle size and size distribution were determined by dynamic light scattering using an Unchained Labs Stunner (Unchained Labs, USA). RNA encapsulation efficiency was determined using the Quant-iT RiboGreen RNA assay (Life Technologies, USA). Briefly, LNPs were incubated with RiboGreen dye (200-fold dilution per manufactures' instruction) in the presence and absence of 1% Triton-X 100 and fluorescence intensities (Excitation/Emission: 485/528 […]) were measured for unencapsulated RNA and total RNA after release from LNPs by Triton-X 100.

HEK293F cells = test: In vitro expression of novel ionizable lipid nanoparticles, high content imaging (CA HA modFlu mRNA); type: cell-based; conditions: LNP with CA HA modFlu mRNA
Outline: (§2)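 Lipid nanoparticles of ionizable lipid, cholesterol, DSPC and ALC-0159 (about 46.3:42.7:9.4:1.6 molar), N:P about 6:1, carrying mRNA, dosed onto cells overnight at 37° C., 5% CO2. Cells fixed and stained with Hoechst plus antibody to encoded protein; nuclei and antigen-positive cells counted by high-content imaging.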

Hela cells [2] = test: as above; type: cell-based; conditions: LNP with CA HA modFlu mRNA
Outline: as §2

Hek293T cells = test: In vitro expression of encoded gene of interest after LNP dosing, high content imaging (WISC HA modFlu mRNA); type: cell-based; conditions: LNP with WISC HA modFlu mRNA, overnight incubation
Protocol: as §1
(§3) Plated Hek293T or Hela cells were dosed with lipid nanoparticles in a total volume of 40 μl cell culture media and incubated overnight at 37° C. and 5% CO2. After fixation with 4% paraformaldehyde in PBS cells were washed in PBS containing 0.3% Triton-X100 and 3% BSA (w/v), followed by nuclear staining with Hoechst and antibody staining for the encoded gene of interest. Nuclear count and identification of cells stained positive for gene of interest was done on an Opera Phenix high content imager (PerkinElmer, USA).

Hela cells [3] = test: as above; type: cell-based; conditions: LNP with WISC HA modFlu mRNA, overnight incubation
Protocol: as §1, §3

[4] = Encapsulation efficiency, RiboGreen RNA quantitation assay (CA HA modFlu mRNA LNPs); type: physicochemical; conditions: LNP with CA HA modFlu mRNA
Outline: (§4)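 LNPs of ionizable lipid:cholesterol:DSPC:ALC-0159 (molar ratio about 46.3:42.7:9.4:1.6) formed by syringe-pump mixing of ethanolic lipids with mRNA at N:P about 6:1, then dialysed into buffer (e.g., Tris) and filtered. Size and PDI measured by DLS; total RNA and encapsulation efficiency by RiboGreen.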

[5] = LNP size and polydispersity index by Malvern Zetasizer dynamic light scattering (CA HA modFlu mRNA LNPs); type: physicochemical; conditions: DLS; for Size (nm): LNP of the ionizable lipid:cholesterol:DSPC:ALC-0159 about 46.3:42.7:9.4:1.6, N:P about 6:1, CA HA modFlu mRNA; for PDI: LNP with CA HA modFlu mRNA
Outline: as §4

[6] = RNA encapsulation efficiency, Quant-iT RiboGreen RNA assay (WISC HA modFlu mRNA LNPs); type: physicochemical; conditions: LNP with WISC HA modFlu mRNA
Protocol: as §1

Row | Compound | Size (nm) [1] | PDI [1] | EC50 Hek293F (ng/well) (HEK293F cells) | EC50 Hela (ng/well) (Hela cells [2]) | EC50 Hek293T (ng/well) (Hek293T cells) | EC50 Hela (ng/well) (Hela cells [3]) | EE % [4] | Size (nm) [5] | PDI [5] | EE % [6]
1 | CCCCCCCC(CCCCCCC)C(=O)O[C@@H]1CC2(CCN(CCCCO)CC2)C[C@H]1OC(=O)C(CCCCCCC)CCCCCCC (racemic) [Example 51, rac-(2R,3R)-8-(4-Hydroxybutyl)-8-azaspiro[4.5]decane-2,3-diyl bis(2-heptylnonanoate)] | 72 nm | 0.03 | 0.27 ng/well | 0.64 ng/well | 5.3 ng/well | 10.7 ng/well | 99% | 58 nm | 0.030 | 96%
2 | CCCCCCCC(CCCCCCC)C(=O)OCC1(COC(=O)C(CCCCCCC)CCCCCCC)CCC2(CCN(CCCCO)CC2)CC1 [Example 1, (3-(4-hydroxybutyl)-3-azaspiro[5.5]undecane-9,9-diyl)bis(methylene) bis(2-heptylnonanoate)] | 76 nm | 0.04 | 1.7 ng/well | 1.2 ng/well | 13.9 ng/well | 18.3 ng/well | 100% | 78 nm | 0.050 | 99%
3 | CCCCCCCC(CCCCCCC)C(=O)OCC(COC(=O)C(CCCCCCC)CCCCCCC)C1CCC2(CC1)CCN(CCCCO)CC2 [Example 2, 2-(3-(4-hydroxybutyl)-3-azaspiro[5.5]undecan-9-yl)propane-1,3-diyl bis(2-heptylnonanoate)] | 93 nm | 0.06 | 2.5 ng/well | 1.6 ng/well | 14.5 ng/well | 28.1 ng/well | 100% | 92 nm | 0.040 | 99%
4 | CCCCCCCC(CCCCCCC)C(=O)OCC(COC(=O)C(CCCCCCC)CCCCCCC)N1CCC2(CCN(CCCCO)CC2)CC1 [Example 3, 2-(9-(4-Hydroxybutyl)-3,9-diazaspiro[5.5]undecan-3-yl)propane-1,3-diyl bis(2-heptylnonanoate)] | 152 nm | 0.07 | 2.8 ng/well | 1.7 ng/well | 11.9 ng/well | 18.4 ng/well | 100% | 90 nm | 0.040 | 99%
5 | CCCCCCCCC(CCCCCC)C(=O)OCC(COC(=O)C(CCCCCC)CCCCCCCC)N1CC2(CCN(CCCCCO)CC2)C1 (centres unmarked) [Example 49, 2-(7-(5-hydroxypentyl)-2,7-diazaspiro [3.5]nonan-2-yl)propane-1,3-diyl bis(2-hexyldecanoate)] | – | – | 0.41 ng/well | 1.4 ng/well | – | – | 99% | 160 nm | 0.110 | –
6 | CCCCCCCCC(CCCCCC)C(=O)OCC(COC(=O)C(CCCCCC)CCCCCCCC)N1CCC2(CC1)CN(CCCCO)C2 (centres unmarked) [Example 50, 2-(2-(4-hydroxybutyl)-2,7-diazaspiro[3.5]nonan-7-yl)propane-1,3-diyl bis(2-hexyldecanoate)] | – | – | 0.56 ng/well | 0.74 ng/well | – | – | 99% | 120 nm | 0.046 | –
